Experimental data published in patent US20260242352A1, “INHIBITION OF SHIP1 AS A THERAPEUTIC STRATEGY FOR THE TREATMENT OF ALZHEIMER'S DISEASE” (The Trustees of Indiana University, priority 2022, published 2026).

Experiments:
SHIP1 = target: T1, SHIP1 (Homo sapiens, UniProt Q92835); assay: Malachite green enzyme assay; type: biochemical; settings: Table 1; PI(3,4,5)P3-diC8 52 μM, enzyme 10 nM, SHIP1 Ptase-C2, 25° C., pH7.4; geometric mean; read-out: SHIP1 IC50 μM (n)
T1 sequence (Q92835 396-858): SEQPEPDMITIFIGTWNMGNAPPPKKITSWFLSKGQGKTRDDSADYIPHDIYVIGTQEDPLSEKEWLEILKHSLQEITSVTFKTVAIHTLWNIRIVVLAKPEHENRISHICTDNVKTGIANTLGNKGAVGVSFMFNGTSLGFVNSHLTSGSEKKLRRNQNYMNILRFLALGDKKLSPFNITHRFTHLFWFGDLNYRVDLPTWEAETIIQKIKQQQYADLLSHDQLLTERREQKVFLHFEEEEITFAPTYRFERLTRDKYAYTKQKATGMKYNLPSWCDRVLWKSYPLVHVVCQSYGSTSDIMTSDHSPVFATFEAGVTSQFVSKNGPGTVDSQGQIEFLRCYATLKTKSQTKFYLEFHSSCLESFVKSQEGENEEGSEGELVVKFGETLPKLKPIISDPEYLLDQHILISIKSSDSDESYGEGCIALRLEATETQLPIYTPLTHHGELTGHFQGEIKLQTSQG
Excerpt: The inventors have performed a screen of 50K compounds at the SHIP1 phosphatase, analyzed a publicly available fragment-based screen, and evaluated inhibitors reported in the literature. They utilized the malachite green assay with PtdIns(3,4,5)P3-diC8 and SHIP1 Ptase-C2 to measure inhibitory potency. A Cellular Thermal Shift Assay was used to confirm target engagement in cells. A phosphoAKT assay was used to provide additional evidence of on-target activity. A high-content imaging assay measuring phagocytosis, cell number, and nuclear intensity was implemented using the BV2 and HMC3 cell lines to characterize cellular pharmacology and cytotoxicity. […] Inhibitors predicted to have drug-like properties were subjected to assays measuring solubility, cellular permeability, and mouse microsomal stability. A physiological based pharmacokinetic model was compared to measured exposure in vivo for select compounds upon oral administration in mice.
Malachite Green Enzyme Assay. […] Compounds diluted in DMSO were added to 384-well plates. Enzyme solution was added. After a 20 min incubation period, the reaction was initiated by addition of PI(3,4,5)P3-diC8. Final compound concentrations ranged from 50 nM to 950 μM. Final reaction concentrations for the PI(3,4,5)P3-diC8 substrate and the enzyme were 52 μM and 10 nM respectively. The reaction was quenched after 10 min by adding Malachite BioMol Green (Enzo Lifesciences, PA, USA). Plates were then incubated for 30 min at room temperature. Absorbance (620 nm) was measured using a SpectraMax Me5 Microplate Reader (Molecular Devices, LLC, USA). IC50 values were calculated by fitting absorbance versus inhibitor concentration.
Compounds diluted in DMSO were added to 384-well plates. Enzyme solution was added. After a 20 min incubation period, the reaction was initiated by addition of PI(3,4,5)P3-diC8. Final compound concentrations ranged from 50 nM to 950 μM. Final reaction concentrations for the PI(3,4,5)P3-diC8 substrate and the enzyme were 52 μM and 10 nM respectively. The reaction was quenched after 10 min by adding Malachite BioMol Green (Enzo Lifesciences, PA, USA). Plates were then incubated for 30 min at room temperature. Absorbance (620 nm) was measured using a SpectraMax Me5 Microplate Reader (Molecular Devices, LLC, USA). IC50 values were calculated by fitting absorbance versus inhibitor concentration and are reported as the geometric mean and standard error of mean with the number of repeats (n) indicated. Compounds and activities are as depicted in tables 1 and 2 above.

HMC3 cells = assay: pHrodo-myelin phagocytosis/cell health assay, HMC3 cells; type: cell-based; settings: Homo sapiens, compound 48 hrs, 60 μM to 3 nM, (n) in cell
Protocol: pHrodo-myelin phagocytosis/cell health assay with microglial cells. This 384-well plate high content imaging assay was developed to quantify phagocytosis and cell health simultaneously using either BV2 or HMC3 immortalized microglial cell lines or primary microglia isolated from mouse brain. Cells were cultured in DMEM GlutaMax media (ThermoFisher) containing 10% FBS and Pen-Strep in 37° C. 5% CO2 incubator.
Day 1: Cells were plated (Corning Falcon 384 well Optilux Black and clear bottom plates for imaging) with BV2 at 400 cells/45 μl/well, HMC3 at 600 cells/45 μl/well, or primary at 2000 cell/45 μl/well.
Day 2: Cells were treated with 10× serially diluted compounds in a dose range of 60 μM to 3 nM for 48 hrs at 37° C.
Day 3: Cells were seeded with pHrodo-myelin (for total 20 hrs) 24 hrs after starting compound treatment. The pHrodo-myelin stocks were at 1 mg/ml (protein equivalent) stored in −20° C. or −80° C. freezer. Stocks were thawed and diluted with culture media into 10× seeding solution (50 μg/ml) and added 5 μl/well to 384 well cell plate.
Day 4: Cell staining and imaging. Nuclear staining solution was prepared by adding 1 μl of 10 mg/mL Hoechst-33342 to every 1 ml culture media that will be added to cell plate at 20 μl/well. The final concentration of Hoechst-33342 to cells was about 2.5 μg/ml. Cell plates were incubated for >30 min at 37° C. before imaging. Cell plates were scanned with an ArrayScan automatic high content imaging system using a 10× objective lens, 4 fields/well collected. Three measurements were obtained 1) mean total phagocytosis spot intensity per cell, 2) total cell counts per well, and 3) mean average nuclear intensity per cell for cell health.
This 384-well plate high content imaging assay was developed to quantify phagocytosis and cell health simultaneously using either BV2 or HMC3 immortalized microglial cell lines or primary microglia isolated from mouse brain. Cells were cultured in DMEM GlutaMax media (ThermoFisher) containing 10% FBS and Pen-Strep in 37° C. 5% CO2 incubator. Day 1: Cells were plated (Corning Falcon 384 well Optilux Black and clear bottom plates for imaging) with BV2 at 400 cells/45 μl/well, HMC3 at 600 cells/45 μl/well, or primary at 2000 cell/45 μl/well. Day 2: Cells were treated with 10× serially diluted compounds in a dose range of 60 μM to 3 nM for 48 hrs at 37° C. Day 3: Cells were seeded with pHrodo-myelin (for total 20 hrs) 24 hrs after starting compound treatment. The pHrodo-myelin stocks were at 1 mg/ml (protein equivalent) stored in −20° C. or −80° C. freezer. Stocks were thawed and diluted with culture media into 10× seeding solution (50 μg/ml) and added 5 μl/well to 384 well cell plate. Day 4: Cell staining and imaging. Nuclear staining solution was prepared by adding 1 μl of 10 mg/mL Hoechst-33342 to every 1 ml culture media that will be added to cell plate at 20 μl/well. The final concentration of Hoechst-33342 to cells was about 2.5 μg/ml. Cell plates were incubated for >30 min at 37° C. before imaging. Cell plates were scanned with an ArrayScan automatic high content imaging system using a 10× objective lens, 4 fields/well collected. Three measurements were obtained 1) mean total phagocytosis spot intensity per cell, 2) total cell counts per well, and 3) mean average nuclear intensity per cell for cell health.

Row | SMILES | IC50 (SHIP1) [µM] | EC50 (HMC3 cells) [µM]
1 | Clc1ccccc1COc1cncc(-c2ccn(C3CCNCC3)n2)c1 [Compound 26, 3-((2-chlorobenzyl)oxy)-5-(1-(piperidin-4-yl)-1H-pyrazol-3-yl)pyridine] | 690 | 
2 | CC(C)(C)OC(=O)N1CCC(n2cc(-c3cncc(OCc4ccccc4F)c3)cn2)CC1 [Compound 2, tert-butyl 4-(4-(5-((2-fluorobenzyl)oxy)pyridin-3-yl)-1H-pyrazol-1-yl)piperidine-1-carboxylate] | 81.9 | 1.44
3 | CC(C)(C)OC(=O)N1CCC(n2cc(-c3cncc(OCc4c(Cl)cccc4Cl)c3)cn2)CC1 [Compound 5, tert-butyl 4-(4-(5-((2,6-dichlorobenzyl)oxy)pyridin-3-yl)-1H-pyrazol-1-yl)piperidine-1-carboxylate] | 35.7 | 3.72
4 | Clc1ccccc1COc1cccc(-c2cnn(C3CCNCC3)c2)c1 [Compound 29, 4-(4-(3-((2-chlorobenzyl)oxy)phenyl)-1H-pyrazol-1-yl)piperidine] | 186 | 
5 | C[C@H](Oc1cncc(-c2cnn(C3CCNCC3)c2)c1)c1ccccc1Cl [Compound 21, (S)-3-(1-(2-chlorophenyl)ethoxy)-5-(1-(piperidin-4-yl)-1H-pyrazol-4-yl)pyridine] |  | 0.722
6 | CC(C)(C)CCN1CCC(n2cc(-c3cncc(OCc4ccccc4Cl)c3)cn2)CC1 [Compound 15, 3-((2-chlorobenzyl)oxy)-5-(1-(1-(3,3-dimethylbutyl)piperidin-4-yl)-1H-pyrazol-4-yl)pyridine] |  | 2.1
7 | Clc1ccccc1COc1cncc(-n2ccc(C3CCNCC3)n2)c1 [Compound 27, 3-((2-chlorobenzyl)oxy)-5-(3-(piperidin-4-yl)-1H-pyrazol-1-yl)pyridine] | 332 | 
8 | CC(C)(C)OC(=O)N1CCC(n2cc(-c3cncc(OCc4ccccc4Cl)c3)cn2)CC1 [Compound 1, tert-butyl 4-(4-{5-[(2-chlorophenyl)methoxy]pyridin-3-yl}-1H-pyrazol-1-yl)piperidine-1-carboxylate] |  | 15.9
9 | CC(C)(C)OC(=O)N1CCC(n2cc(-c3cncc(OCc4ccc(Br)cc4)c3)cn2)CC1 [Compound 7, tert-butyl 4-(4-(5-((4-bromobenzyl)oxy)pyridin-3-yl)-1H-pyrazol-1-yl)piperidine-1-carboxylate] | 57 | 2.43
10 | CC(C)(C)CC(=O)N1CCC(n2cc(-c3cncc(OCc4ccccc4Cl)c3)cn2)CC1 [Compound 16, 1-(4-(4-(5-((2-chlorobenzyl)oxy)pyridin-3-yl)-1H-pyrazol-1-yl)piperidin-1-yl)-3,3-dimethylbutan-1-one] | 102 | 2.07
11 | Cl.Clc1ccccc1COc1cncc(-c2cnn(C3CCNCC3)c2)c1 [Compound 9, 3-((2-chlorobenzyl)oxy)-5-(1-(piperidin-4-yl)-1H-pyrazol-4-yl)pyridine hydrochloride] | 302 | 0.584
12 | C[C@@H](Oc1cncc(-c2cnn(C3CCNCC3)c2)c1)c1ccc(Cl)cc1 [Compound 23, (R)-3-(1-(4-chlorophenyl)ethoxy)-5-(1-(piperidin-4-yl)-1H-pyrazol-4-yl)pyridine] |  | 0.145
13 | Clc1ccccc1COc1cncc(-n2cc(C3CCNCC3)cn2)c1 [Compound 28, 3-((2-chlorobenzyl)oxy)-5-(4-(piperidin-4-yl)-1H-pyrazol-1-yl)pyridine] | 601 | 
14 | C[C@@H](Oc1cncc(-c2cnn(C3CCNCC3)c2)c1)c1ccccc1Cl [Compound 22, (R)-3-(1-(2-chlorophenyl)ethoxy)-5-(1-(piperidin-4-yl)-1H-pyrazol-4-yl)pyridine] | 152 | 
15 | Cc1ccccc1COc1cncc(-c2cnn(C3CCN(C(=O)OC(C)(C)C)CC3)c2)c1 [Compound 3, tert-butyl 4-(4-(5-((2-methylbenzyl)oxy)pyridin-3-yl)-1H-pyrazol-1-yl)piperidine-1-carboxylate] | 116 | 4.19
16 | Cc1ccccc1COc1cncc(-c2cnn(C3CCNCC3)c2)c1 [Compound 25, 3-[(2-Methylphenyl)methoxy]-5-[1-(piperidin-4-yl)-1H-pyrazol-4-yl]pyridine] | 851 | 1.35
17 | Cl.Clc1ccc(COc2cncc(-c3cnn(C4CCNCC4)c3)c2)c(Cl)c1 [Compound 10, 3-((2,4-dichlorobenzyl)oxy)-5-(1-(piperidin-4-yl)-1H-pyrazol-4-yl)pyridine hydrochloride] | 286 | 0.308
18 | CC(C)(C)OC(=O)N1CCC(n2cc(-c3cncc(OCc4ccccc4)c3)cn2)CC1 [Compound 4, tert-butyl 4-(4-(5-(benzyloxy)pyridin-3-yl)-1H-pyrazol-1-yl)piperidine-1-carboxylate] | 90.3 | 2.01
